From patent US20130137728A1, “Compositions and Methods for the Treatment of Degenerative Diseases” (MUSC Foundation For Research And Development, priority 2010, published 2013)
“Also recorded” adds a separate entry of the source. Non-standard residues stand in square brackets, D forms with d. Residues, ends and D or L forms follow the SMILES beside them. Nle = CCCC[C@H](N)C(=O)O

Assays:
[1] = Viability of stressor-treated cells by dye exclusion 24 h after treatment; type: cell-based; conditions: mouse; 661W cells; 1 μM A23187; incubated 24 h; ethidium bromide/acridine orange
Experimental: (§1) 28. FIG. 17. Calcium and oxidative stress attenuate mitochondrial capacity. Shown are 661W cell OCR responses to 1 μM FCCP after treatment with listed concentrations of (A) A23187 and (B) tBuOOH. In A OCR rates are given as pmol/min, in B the rates for each well have been normalized to the basal rates measured prior to FCCP (which standardizes comparisons between data measured on different days). 661W cells analyzed by XF24 were incubated for 24 h and viability determined using ethidium bromide/acridine orange. Images of cells treated with (C) 1 μM A23187 and (D) control represent 47% and >95% viability.
269. The cells were then returned to the incubator and analyzed for cell viability via dye exclusion 24 h after treatment (FIGS. 17C,D). […] In addition, the higher concentrations produced profound changes in metabolic phenotype as evidenced in the cell's responses to the uncoupler FFCP. […] In both cases, reduced OCR and ECAR values are predictive of cell death although at intermediate concentrations, where cell death is still occurring, the ECAR rates actually increase, particularly for tBuOOH treatments.

661W cells [2] = experiment: XF24 assay of stressor effects on respiratory capacity (OCR, FCCP response); type: cell-based, mouse; conditions: for mitochondrial capacity measured from the FCCP response: 30 min after treatment; for respiratory / mitochondrial capacity (FCCP-uncoupled OCR): IBMX 1.0 mM in FIG. 19
Experimental: as §1
30. FIG. 19. Mild calcium or oxidative stress reduces metabolic capacity in a photoreceptor cell line. (Calcium stress, left panel) 661W cells were treated with vehicle control (dark blue) or 1.0 mM IBMX (turquoise), followed by treatment with 1 μM FCCP. […] (Oxidant stress, right panel)
(§2) 257. As shown in FIG. 1 and FIG. 2 below, compounds CB11, CB11a, CB11b, CB11c, CB11d and IBMX (see FIG. 1); compounds CB12, CB12a, CB12b, CB12c, CB12d and IBMX (see FIG. 2) were tested against the calcium-induced mitochondrial damage assay. IBMX is a membrane-permeable inhibitor of β-phosphodiesterase which results in a buildup of cGMP. An excess of cGMP increases the number of cGMP-gated cation channels in an open configuration, allowing an influx of Ca2+ into the cell, leading to mitochondrial damage and eventual cell death.
268. In preliminary experiments the energy metabolism of 661W cells using the XF24. 661W cells were analyzed and produce large amounts of lactic acid from glucose oxidation [Winkler B S, Starnes C A, Sauer M W, Firouzgan Z, Chen S C: Cultured retinal neuronal cells and Muller cells both show net production of lactate. Neurochem Int 2004, 45(2-3):311-320]. […] To examine whether the metabolic responses were predictive of cell death due to calcium or oxidant stress, the cells were exposed to calcium ionophore A23187 or the oxidant tert-butylhydroperoxide (tBuOOH) on the XF24 instrument for 30 min after which some of the treated cells were exposed to the protonophore FCCP to uncouple the mitochondrial membrane potential. The uncoupling attenuates ATP production and causes the mitochondria to dramatically increase oxygen consumption in an attempt to recover the lost ATP production capacity. The increase in oxygen consumption is a measure of the total mitochondrial capacity or reserve.
271. In preliminary studies, the direct oxidant tert-butylhydroperoxide (tBuOOH) was used to induce oxidant stress and the agent A23187, a calcium ionophore that binds to and carries Ca^2+ across cellular membranes, including mitochondrial membranes (Abbott, B. J., Fukuda, D. S., Dorman, D. E., Occolowitz, J. L., Debono, M., and Farhner, L. (1979) Antimicrob. Agents Chemother. 16(6), 808-812). Because A23187 rapidly increases intracellular and intra-mitochondrial calcium concentrations, it triggers Ca^2+-mediated programmed cell death (2. Orrenius, S., Zhivotovsky, B., and Nicotera, P. (2003) Nat. Rev. Mol. Cell. Biol. 4, 552-565; Hajnóczky, G., Davies, E., and Madesh, M. (2003) Biochem. Biophys. Res. Commun. 304, 445-454). One could argue that these two agents are akin to hammers rather than the more subtle, chronic oxidant and calcium stressors seen in degenerative processes. The XF24 assay was validated using two more physiologically relevant stressors. To induce calcium stress, 3-Isobutyl-1-methyl xanthine (IBMX), a non-selective phosphodiesterase (PDE) inhibitor was used (4. Zhang, X., Feng, Q., and Cote, R. H. (2005) Invest. Ophthalmol. Vis. Sci. 46(9), 3060-3066). Inhibition of PDEs causes increases in the intracellular cAMP and cGMP concentrations leading to slow activation cGMP-gated cation channels and an increase of Ca^2+ flux into the cell (5. Yarfitz, S., and Hurley, J. B. (1994) J. Biol. Chem. 269(20), 14329-14332; Koutalos, Y., and Yau, K.-W. (1996) Trends Neurosci. 19, 73-81). […]

661W cells [3] = experiment: Calcium-induced mitochondrial damage assay (IBMX, OCR on Seahorse XF24); type: cell-based, mouse; conditions: pretreatment with 1 μM for 1 h prior to addition of IBMX
Experimental: 32. FIG. 21. Secondary screening of neuroprotective agents discovered from library screening. The 661W cells were pretreated for 1 h with lead compounds, CB10-CB12 (1 μM), prior to treatment with 600 μM IBMX. The basal and uncoupled OCR rates were measured.
as §2
274. […] A higher stringency for hit selection than is commonly used was performed to avoid the less productive process of filtering through a large number of poor leads. It is notable that the complete ChemBridge library contains over 700,000 molecules that are searchable based on chemical structure, physicochemical properties, etc. To identify the active species present in the initial pool of 12 compounds were screened and then chemical similarity searches on the larger 700,000 member library was performed to identify other molecules that define pharmacophores. This strategy has more efficiently lead to agents that block retinal degeneration. Also, this strategy enabled quick identification of a small number of agents that that were moved into more sophisticated cellular and physiological models so as to better validate the mechanisms. For example, in the high-throughput screen a very toxic, non-specific calcium ionophore assay was used which gives a rather broad readout of cell “viability”. In the secondary assays the specificity and stringency were increased via use of more specific calcium stressor, 3-isobutyl-1-methylxanthine (IBMX) and a more relevant metabolic read-out, loss of respiratory capacity as measured from the attenuation of the uncoupled respiratory rate as measured with the Seahorse instrument. This assay format was used to evaluate the 12 initial lead compounds and are pleased to report that several of these agents do indeed protect against loss in respiratory capacity due to IBMX exposure.

661W cells [4] = experiment: A23187 viability screen (MTS assay); type: cell-based, mouse; conditions: 50 μM, 1 μM A23187, 24 hours
Description: 273. ChemBridge, Inc. has a large (>700,000) commercially available chemical library and a DIVERSet library was obtained, which is a subset of compounds selected for diversity and favorable drug-like properties. Because the DIVERSet library is much too large for lower throughput, high-content screens, single end-point assays amenable to high-throughput were developed and disclosed herein. […] A viability assay using treatments with A23187 to search for molecules in the library that protect from acute calcium toxicity was developed and disclosed herein. The concentration of A23187 was selected to give about 50% death and pools that protected against death were identified. The assay format was optimized and validated using calpeptin, a […] as a positive control. In brief, 661W cells were maintained in DMEM supplemented with 10% FBS. For the assay, 100 μL of 70,000 cells/mL cells were seeded into each well of 96 well plates using DMEM supplemented with 5% FBS. Cells were then allowed to grow to confluency for 48 hours. Library compounds were added in 2 μL containing 10 compounds at 20 μM each. Ionophore A23187 was then added in 1 μL for a final concentration of 1 μM and after 24 hours cells were analyzed for viability using the MTS assay according to the manufactures protocol (Promega CellTiter 96® Cat.#G5421). […]

661W cells [5] = experiment: XF24 assay of stressor effects on respiratory capacity (OCR, FCCP response); type: cell-based, mouse; conditions: 661W cells treated with 1 μM IBMX for 20 min
rd1 photoreceptors = experiment: rd1 mouse retinal organ culture assay (retina-RPE explants, photoreceptor row count); type: cell-based

## CNc1ccc2oc(C[C@H]3O[C@@]4(CC[C@H]3C)O[C@H]([C@H](C)C(=O)c3ccc[nH]3)[C@H](C)C[C@H]4C)nc2c1C(=O)O [A23187]
[1]
  viability at 24 h, 1 μM: 47%
661W cells [2]
  mitochondrial capacity measured from the FCCP response: significant loss of mitochondrial capacity

## O=C(CC1(O)C(=O)N(CCc2ccccc2)c2ccccc21)c1cccnc1 (stereo not shown) [CB11b]
661W cells [3]
  basal and maximal OCR (oxygen consumption rate): improvement of both basal and maximal OCR

## O=C(CC1(O)C(=O)N(CCc2ccccc2)c2ccc(Cl)cc21)c1ccccn1 (stereo not shown) [CB11c]
661W cells [3]
  basal and maximal OCR (oxygen consumption rate): improvement of both basal and maximal OCR

## CCOC(=O)CN1C(=O)C(O)(CC(=O)c2ccccn2)c2ccccc21 (stereo not shown) [CB11d]
661W cells [3]
  basal and maximal OCR (oxygen consumption rate): improvement of both basal and maximal OCR

## COC(=O)c1ccccc1NC(=O)c1sc(-c2cccnc2)nc1C [CB12b]
661W cells [3]
  basal and maximal OCR (oxygen consumption rate): improvement of both basal and maximal OCR

## CC(=O)Nc1cccc(NC(=O)c2sc(-c3cccnc3)nc2C)c1 [CB12c]
661W cells [3]
  basal and maximal OCR (oxygen consumption rate): improvement of both basal and maximal OCR

## Cc1nc(-c2cccnc2)sc1C(=O)Nc1ccc(C(N)=O)cc1 [CB12d]
661W cells [3]
  basal and maximal OCR (oxygen consumption rate): improvement of both basal and maximal OCR

## CCCC[C@@H](C=O)NC(=O)[C@H](CC(C)C)NC(=O)[C@H](CC(C)C)NC(C)=O [Calpain Inhibitor I] (Ac-Leu-Leu-[Nle]-aldehyde)
661W cells [4]
  reversal of ionophore A23187 effects on viability: able to reverse ionophore effects

## CC(C)Cn1c(=O)n(C)c(=O)c2[nH]cnc21 [IBMX, 3-Isobutyl-1-methyl xanthine]
661W cells [2]
  effect on basal respiration rates: little or no direct effect on basal respiration rates
  respiratory / mitochondrial capacity (FCCP-uncoupled OCR): diminished respiratory capacity compared to control; also recorded: same types of loss in mitochondrial capacity
661W cells [2]; 600 μM IBMX
  basal and uncoupled OCR relative to untreated control: attenuates basal and uncoupled OCR
661W cells [2]; 500-600 μM IBMX
  decrease in both basal and maximal (FCCP-uncoupled) respiratory capacity: ~50%
661W cells [5]
  loss in metabolic capacity as measured from the FCCP response: ~50%

## CCCC[C@@H](C=O)NC(=O)[C@H](CC(C)C)NC(=O)OCc1ccccc1 [calpeptin]
rd1 photoreceptors; rd1 mouse organ cultures exposed to 1 mM from P11 to P21
  rows of photoreceptors (average): 3.3±0.3 rows of photoreceptors
rd1 photoreceptors; rd1 retina-RPE sandwich cultures P10 through P21, quantified from images
  rows of photoreceptors remaining at P21: about 3.5 rows

## C[n+]1ccc(-c2cc[n+](C)cc2)cc1 [paraquat]
661W cells [2]
  effect on basal respiration rates: little or no direct effect on basal respiration rates
  respiratory / mitochondrial capacity (FCCP-uncoupled OCR): same types of loss in mitochondrial capacity

## CC(C)(C)OO [tBuOOH, tert-butylhydroperoxide]
661W cells [2]
  mitochondrial capacity measured from the FCCP response: significant loss of mitochondrial capacity
